Measurements from ChEMBL document CHEMBL6127141, “1-Deoxynojirimycin Derivative Containing Tegafur Induced HCT-116 Cell Apoptosis through Mitochondrial Dysfunction and Oxidative Stress Pathway” (ACS Med Chem Lett, 2024).
Activity calls are given as the source filed them. The calls are words filed in the database; no cut-off is given here.

Assays:
HCT-116 [1] = test: Induction of cell cycle arrest in human HCT-116 cells assessed as accumulation of cells at S phase at 10 uM incubated for 24 hrs by flow cytometric analysis (reference value: 4.7 %); format: functional
HeLa = test: Cytotoxicity against human HeLa cells assessed as inhibition of cell proliferation incubated for 48 hrs by MTT assay; format: functional, cell-based
HepG2 = test: Cytotoxicity against human HepG2 cells assessed as inhibition of cell proliferation incubated for 48 hrs by MTT assay; format: functional, cell-based; conditions: HepG2, 48 h
L02 = test: Cytotoxicity against human L02 cells assessed as inhibition of cell proliferation incubated for 48 hrs by MTT assay; format: functional, cell-based; conditions: L02, 48 h
[2] = Lipophilicity, logP of compound in n-octanol saturated PBS incubated for 24 hrs by shake-flask method based ultraviolet spectrophotometry; format: physicochemical
A549 = test: Cytotoxicity against human A549 cells assessed as inhibition of cell proliferation incubated for 48 hrs by MTT assay; format: functional, cell-based; conditions: A549, 48 h
HCT-116 [3] = test: Induction of apoptosis in human HCT-116 cells assessed as apoptotic cells at 10 uM incubated for 24 hrs in presence of tegafur by Annexin V-FITC/PI staining based flow cytometric analysis relative to control; format: functional
HCT-116 [4] = test: Anti-metastatic activity in human HCT-116 cells assessed as inhibition of cell migration by measuring wound healing rate at 10 uM incubated for 24 hrs in presence of tegafur by inverted fluorescence microscopic analysis relative to control; format: functional; design: scale not given: the % may be the effect or the level left
BGC-823 = test: Cytotoxicity against human BGC-823 cells assessed as inhibition of cell proliferation incubated for 48 hrs by MTT assay; format: functional, cell-based; conditions: BGC-823, 48 h
HCT-116 [5] = test: Induction of cell cycle arrest in human HCT-116 cells assessed as accumulation of cells at S phase at 10 uM incubated for 24 hrs in presence of tegafur by flow cytometric analysis (reference value: 4.7 %); format: functional
HCT-116 [6] = test: Anti-metastatic activity in human HCT-116 cells assessed as inhibition of cell migration by measuring wound healing rate at 10 uM incubated for 24 hrs by inverted fluorescence microscopic analysis relative to control; format: functional; design: scale not given: the % may be the effect or the level left
HCT-116 [7] = test: Induction of apoptosis in human HCT-116 cells assessed as apoptotic cells at 10 uM incubated for 24 hrs by Annexin V-FITC/PI staining based flow cytometric analysis relative to control; format: functional
HCT-116 [8] = test: Cytotoxicity against human HCT-116 cells assessed as inhibition of cell proliferation incubated for 48 hrs by MTT assay; format: functional, cell-based; conditions: HCT-116, 48 h
HCC1937 = test: Cytotoxicity against human HCC1937 cells assessed as inhibition of cell proliferation incubated for 48 hrs by MTT assay; format: functional, cell-based; conditions: HCC1937, 48 h
[9] = Selectivity index, ratio of IC50 for cytotoxicity against human L02 cells to IC50 for cytotoxicity against human HCT-116 cells; format: toxicity, cell-based; conditions: L02 cells and HCT-116 cells, read-out: Ratio IC50
Alpha glucosidase = Alpha glucosidase (Homo sapiens, UniProt O43451+P10253+P14410+Q2M2H8); test: Inhibition of alpha-glucosidase (unknown origin) using para-nitrophenyl-alpha-d-glucopyranoside as substrate preincubated for 5 mins followed by substrate addition and measured after 30 mins by microplate reader; format: protein assay
HCT-116 [10] = test: Anti-metastatic activity in human HCT-116 cells assessed as inhibition of cell migration by measuring wound healing rate at 10 uM incubated for 24 hrs in presence of 1-Deoxynojirimycin by inverted fluorescence microscopic analysis relative to control; format: functional; design: scale not given: the % may be the effect or the level left
HCT-116 [11] = test: Induction of apoptosis in human HCT-116 cells assessed as apoptotic cells at 10 uM incubated for 24 hrs in presence of 1-Deoxynojirimycin by Annexin V-FITC/PI staining based flow cytometric analysis relative to control; format: functional
HCT-116 [12] = test: Induction of cell cycle arrest in human HCT-116 cells assessed as accumulation of cells at S phase at 10 uM incubated for 24 hrs in presence of 1-Deoxynojirimycin by flow cytometric analysis (reference value: 4.7 %); format: functional
[13] = Potency index, ratio of 1-Deoxynojirimycin IC50 to test compound IC50 for cytotoxicity against human HCT-116 cells assessed as inhibition of cell proliferation incubated for 48 hrs by MTT assay; format: functional
HCT-116 [14] = test: Induction of oxidative stress in human HCT-116 cells assessed as decrease in GSH concentration at 5 to 10 uM incubated for 24 hrs; format: functional, cell-based; conditions: dose 5-10 µM
HCT-116 [15] = test: Induction of apoptosis in human HCT-116 cells assessed as appearance of bright blue appearance at 10 uM incubated for 24 hrs by Hoechst 33342 staining based fluorescence microscopic analysis; format: functional, cell-based
HCT-116 [16] = test: Induction of oxidative stress in human HCT-116 cells assessed as decrease in Nrf2 level at 10 uM incubated for 24 hrs by Western blot analysis; format: functional, cell-based
HCT-116 [17] = test: Inhibition of colony formation in human HCT-116 cells at 5 to 10 uM incubated for 48 hrs by crystal purple staining based analysis; format: functional, cell-based; conditions: dose 5-10 µM
HCT-116 [18] = test: Cytotoxicity against human HCT-116 cells assessed as inhibition of cell proliferation at 5 to 10 uM preincubated with NAC for 3 hrs followed by compound addition and measured after 48 hrs by MTT assay; format: functional, cell-based; conditions: dose 5-10 µM
HCT-116 [19] = test: Induction of oxidative stress in human HCT-116 cells assessed as increase in MDA level at 5 to 10 uM incubated for 24 hrs by Lipid Peroxidation MDA assay; format: functional, cell-based; conditions: dose 5-10 µM
HCT-116 [20] = test: Induction of apoptosis in human HCT-116 cells assessed as downregulation of Bcl2 protein level at 10 uM incubated for 24 hrs by Western blot analysis; format: functional, cell-based
HCT-116 [21] = test: Induction of oxidative stress in human HCT-116 cells assessed as decrease in SOD concentration at 5 to 10 uM incubated for 24 hrs; format: functional, cell-based; conditions: dose 5-10 µM
HCT-116 [22] = test: Induction of ROS accumulation in human HCT-116 cells assessed as increase in green fluorescence intensity at 5 to 10 uM preincubated with NAC for 3 hrs followed by compound addition and measured after 24 hrs by DCFH-DA staining based fluorescence microscopic analysis; format: functional, cell-based; conditions: dose 5-10 µM
HCT-116 [23] = test: Induction of apoptosis in human HCT-116 cells assessed as cell contraction at 10 uM incubated for 24 hrs by Hoechst 33342 staining based fluorescence microscopic analysis; format: functional
HCT-116 [24] = test: Induction of oxidative stress in human HCT-116 cells assessed as increase in NO level at 5 to 10 uM incubated for 24 hrs; format: functional, cell-based; conditions: dose 5-10 µM
Mitochondrial membrane = test: Induction of mitochondrial membrane potential loss in human HCT-116 cells assessed as decrease in red fluorescence at 10 uM incubated for 24 hrs by JC-1 staining based fluorescence microscopic analysis; format: cell membranes
HCT-116 [25] = test: Induction of ROS accumulation in human HCT-116 cells assessed as increase in green fluorescence intensity at 5 to 10 uM incubated for 24 hrs by DCFH-DA staining based fluorescence microscopic analysis; format: functional, cell-based; conditions: dose 5-10 µM
HCT-116 [26] = test: Induction of DNA damage in human HCT-116 cells assessed as increase in TS protein expression at 10 uM incubated for 24 hrs by Western blot analysis; format: functional, cell-based
HCT-116 [27] = test: Induction of apoptosis in human HCT-116 cells assessed as upregulation of Bax protein level at 10 uM incubated for 24 hrs by Western blot analysis; format: functional, cell-based

| SMILES | Activity (HCT-116 [1]) | IC50 (HeLa) | IC50 (HepG2) | IC50 (L02) | logP at 24 h [2] | IC50 (A549) | IC50 (BGC-823) | Activity (HCT-116 [6]) | Activity (HCT-116 [7]) | IC50 (HCT-116 [8]) | IC50 (HCC1937) | selectivity ratio [9] | IC50 (Alpha glucosidase) | further results |
| --- | --- | --- | --- | --- | --- | --- | --- | --- | --- | --- | --- | --- | --- | --- |
| OC[C@H]1NC[C@H](O)[C@@H](O)[C@@H]1O [DUVOGLUSTAT] | 11.29% | > 100 µM | > 100 µM | > 100 µM | -0.68 | > 100 µM | > 100 µM | 51.91% | 6.16% | > 100 µM | > 100 µM |  |  | Activity (HCT-116 [3]): 15.17%; Activity (HCT-116 [4]): 32%; Activity (HCT-116 [5]): 34.84% |
| O=c1c(F)cn(C2CCCO2)c(=O)n1CCCCCCCCN1C[C@H](O)[C@@H](O)[C@H](O)[C@H]1CO (some centres not stated) |  | 26.8 µM | 14.8 µM | 29.3 µM | -0.65 | 19.4 µM | 12.5 µM |  |  | 7.32 µM | 19.7 µM | 4 | 15.09 µM |  |
| O=c1[nH]c(=O)n(C2CCCO2)cc1F (configuration not stated) [TEGAFUR] | 43.81% | 96.1 µM | > 100 µM | 23.5 µM |  | > 100 µM | 99.4 µM | 44.37% | 8.99% | 88.6 µM | > 100 µM | 0.27 |  | Activity (HCT-116 [10]): 32%; Activity (HCT-116 [11]): 15.17%; Activity (HCT-116 [12]): 34.84% |
| O=c1c(F)cn(C2CCCO2)c(=O)n1CCCCCN1C[C@H](O)[C@@H](O)[C@H](O)[C@H]1CO (some centres not stated) |  | 29.3 µM | 40.7 µM | 56.3 µM | -2.49 | 57.6 µM | 38.6 µM |  |  | 15.6 µM | 43.2 µM | 3.6 | 40.96 µM |  |
| O=c1c(F)cn(C2CCCO2)c(=O)n1CCCCCCCCCCCN1C[C@H](O)[C@@H](O)[C@H](O)[C@H]1CO (some centres not stated) | 49.31% | 13 µM | 7.72 µM | 19.7 µM | 1.02 | 6.34 µM | 4.35 µM | 9.42% | 69.8% | 1.37 µM | 9.14 µM | 14.4 | 2.76 µM | Ratio IC50 [13]: 73; Activity (HCT-116 [14]): Active; Activity (HCT-116 [15]): Active; Activity (HCT-116 [16]): Active; inhibition (HCT-116 [17]): Active; Activity (HCT-116 [18]): inactive; Activity (HCT-116 [19]): Active; Activity (HCT-116 [20]): Active; Activity (HCT-116 [21]): Active; Activity (HCT-116 [22]): inactive; Activity (HCT-116 [23]): Active; Activity (HCT-116 [24]): Active; Activity (Mitochondrial membrane): Active; Activity (HCT-116 [25]): Active; Activity (HCT-116 [26]): Active; Activity (HCT-116 [27]): Active |
